Measurements published in US10858362B2, “Imidazopyrazinones as PDE1 inhibitors” (H. Lundbeck A/S, priority 2015, dated 2020).

What was measured:
Assay type in all cases: biochemical
[1] = molecular target: PDE1A (Homo sapiens (Human), UniProt P54750); experiment: PDE1 inhibition assay, PDE1A; conditions: for IC50: 15 nM tritium labelled cAMP; for inhibition at 10 µM: read-out: PDE1A, % inhibition (at 10 μM)
Experimental: (§1) Reactions were initiated by addition of the cyclic nucleotide substrate, and reactions were allowed to proceed for 1 h at room temperature before being terminated through mixing with 20 μL (0.2 mg) yttrium silicate SPA beads (PerkinElmer).

[2] = molecular target: PDE1B (Homo sapiens (Human), UniProt Q01064); experiment: PDE1 inhibition assay, PDE1B; conditions: for IC50: 15 nM tritium labelled cAMP; for inhibition at 10 µM: read-out: PDE1B, % inhibition (at 10 μM)
Experimental: as §1, with “(PerkinElmer). The beads were allowed to settle for 1 h in the dark before the plates were counted in a Wallac 1450 Microbeta counter.” for “(PerkinElmer).”

[3] = molecular target: PDE1C (Homo sapiens (Human), UniProt Q14123); experiment: PDE1 inhibition assay, PDE1C; conditions: for IC50: 15 nM tritium labelled cAMP; for inhibition at 10 µM: read-out: PDE1C, % inhibition (at 10 μM)
Experimental: as §1, with “(PerkinElmer). The beads were allowed to settle for 1 h in the dark before the plates were counted in a Wallac 1450 Microbeta counter.” for “(PerkinElmer).”

[4] = molecular target: PDE9 (Homo sapiens (Human), UniProt O76083); experiment: PDE9 inhibition assay
Method in brief: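 Human PDE9 in 50 mM HEPES pH 7.6, 10 mM MgCl2, 0.02% Tween20, enzyme set to convert 20-25% of 10 nM ^3H-cAMP substrate; inhibitors at varying amounts. 1 hr incubation, stopped with yttrium silicate SPA beads, settled 1 hr in dark, then scintillation counted.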

PDE9, sequence (O76083 whole entry): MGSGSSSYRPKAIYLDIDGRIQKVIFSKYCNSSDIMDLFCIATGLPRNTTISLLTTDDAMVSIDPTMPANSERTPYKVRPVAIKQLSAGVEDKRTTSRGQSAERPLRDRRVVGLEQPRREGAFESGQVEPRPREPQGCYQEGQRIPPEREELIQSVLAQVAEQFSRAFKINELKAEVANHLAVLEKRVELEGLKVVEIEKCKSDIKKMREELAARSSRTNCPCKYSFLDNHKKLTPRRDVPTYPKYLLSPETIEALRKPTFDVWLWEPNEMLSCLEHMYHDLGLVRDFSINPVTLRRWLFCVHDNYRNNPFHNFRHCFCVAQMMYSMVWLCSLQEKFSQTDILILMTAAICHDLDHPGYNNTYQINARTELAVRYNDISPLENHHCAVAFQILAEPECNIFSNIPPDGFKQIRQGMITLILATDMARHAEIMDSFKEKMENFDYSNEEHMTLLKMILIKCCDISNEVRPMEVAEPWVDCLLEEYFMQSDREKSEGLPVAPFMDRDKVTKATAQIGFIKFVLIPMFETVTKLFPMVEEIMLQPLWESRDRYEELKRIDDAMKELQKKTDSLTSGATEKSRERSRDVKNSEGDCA
PDE1B, sequence (Q01064 whole entry): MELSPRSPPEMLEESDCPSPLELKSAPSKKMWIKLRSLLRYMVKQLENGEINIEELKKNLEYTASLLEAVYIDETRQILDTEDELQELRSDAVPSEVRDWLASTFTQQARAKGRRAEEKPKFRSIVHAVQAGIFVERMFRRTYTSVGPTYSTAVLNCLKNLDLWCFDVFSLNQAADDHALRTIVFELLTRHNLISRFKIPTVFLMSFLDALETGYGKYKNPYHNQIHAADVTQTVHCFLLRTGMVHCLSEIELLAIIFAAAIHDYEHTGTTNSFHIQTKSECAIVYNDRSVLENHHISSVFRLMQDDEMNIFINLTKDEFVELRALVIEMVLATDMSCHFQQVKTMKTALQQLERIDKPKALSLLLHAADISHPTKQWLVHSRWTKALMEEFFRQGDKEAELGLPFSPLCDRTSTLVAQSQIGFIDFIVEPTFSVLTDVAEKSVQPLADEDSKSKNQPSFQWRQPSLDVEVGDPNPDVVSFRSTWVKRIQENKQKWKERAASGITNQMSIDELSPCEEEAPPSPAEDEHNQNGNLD
PDE1A, sequence (P54750 whole entry): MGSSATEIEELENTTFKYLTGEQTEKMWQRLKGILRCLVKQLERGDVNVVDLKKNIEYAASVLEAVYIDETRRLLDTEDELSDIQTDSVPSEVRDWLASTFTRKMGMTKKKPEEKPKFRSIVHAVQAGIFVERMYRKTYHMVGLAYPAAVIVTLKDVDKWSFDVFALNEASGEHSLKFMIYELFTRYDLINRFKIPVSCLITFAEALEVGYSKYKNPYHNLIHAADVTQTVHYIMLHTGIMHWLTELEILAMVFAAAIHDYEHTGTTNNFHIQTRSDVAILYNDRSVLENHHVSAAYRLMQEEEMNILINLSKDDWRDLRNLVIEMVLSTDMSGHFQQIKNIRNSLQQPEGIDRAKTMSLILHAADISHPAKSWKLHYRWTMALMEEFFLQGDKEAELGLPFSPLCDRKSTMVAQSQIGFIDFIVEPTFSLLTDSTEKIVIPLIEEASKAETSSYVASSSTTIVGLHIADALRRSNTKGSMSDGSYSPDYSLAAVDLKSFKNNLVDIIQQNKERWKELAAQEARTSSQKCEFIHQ
PDE1C, sequence (Q14123 whole entry): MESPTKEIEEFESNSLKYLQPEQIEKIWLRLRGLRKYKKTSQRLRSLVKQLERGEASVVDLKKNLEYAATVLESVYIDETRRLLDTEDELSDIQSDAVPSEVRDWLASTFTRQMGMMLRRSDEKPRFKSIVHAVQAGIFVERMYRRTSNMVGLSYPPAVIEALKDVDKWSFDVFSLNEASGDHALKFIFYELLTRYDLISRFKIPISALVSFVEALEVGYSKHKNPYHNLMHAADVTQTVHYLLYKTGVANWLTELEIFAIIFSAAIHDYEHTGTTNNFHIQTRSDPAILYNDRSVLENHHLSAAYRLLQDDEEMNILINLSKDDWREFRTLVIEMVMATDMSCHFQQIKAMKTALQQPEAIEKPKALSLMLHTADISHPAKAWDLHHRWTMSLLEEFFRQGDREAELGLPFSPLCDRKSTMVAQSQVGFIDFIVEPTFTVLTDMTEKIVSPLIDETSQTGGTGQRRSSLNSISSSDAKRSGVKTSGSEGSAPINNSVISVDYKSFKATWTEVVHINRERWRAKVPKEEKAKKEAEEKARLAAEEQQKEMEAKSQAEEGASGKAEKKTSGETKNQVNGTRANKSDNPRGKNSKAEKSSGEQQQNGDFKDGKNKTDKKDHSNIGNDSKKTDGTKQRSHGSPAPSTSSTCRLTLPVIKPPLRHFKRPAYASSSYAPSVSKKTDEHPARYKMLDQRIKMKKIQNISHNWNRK

Row | IC50 [1] [nM] | IC50 [2] [nM] | IC50 [3] [nM] | inhibition at 10 µM [4] [%] | SMILES | also measured
1 | 122 | 44 | 126 | -14 | COCC(C)(C)c1ncc2c(=O)n(Cc3ccc(OC)cc3)c(C)cn12 [Example 76, 3-(1-methoxy-2-methylpropan-2-yl)-7-(4-methoxybenzyl)-6-methylimidazo[1,5-a]pyrazin-8(7H)-one] | 
2 |  |  | 2300 | 36 | Cc1noc(C)c1Cn1c(C)cn2c(C3CCOCC3)ncc2c1=O [Example 81, 7-((3,5-dimethylisoxazol-4-yl)methyl)-6-methyl-3-(tetrahydro-2H-pyran-4-yl)imidazo[1,5-a]pyrazin-8(7H)-one] | inhibition at 10 µM [1]: 27%; inhibition at 10 µM [2]: 36%
3 | 181 | 185 | 417 | 20 | COc1ccc(Cn2c(C)cn3c(C4(C)CCN(S(N)(=O)=O)C4)ncc3c2=O)cc1 (centres unmarked) [Example 91, 3-(7-(4-methoxybenzyl)-6-methyl-8-oxo-7,8-dihydroimidazo[1,5-a]pyrazin-3-yl)-3-methylpyrrolidine-1-sulfonamide] | 
4 | 8 | 12 | 6 | -6 | O=c1c2cnc(C3CCOCC3)n2cc(Cc2ccccc2)n1CC1CCCCC1 [Example 3, 6-Benzyl-7-(cyclohexylmethyl)-3-(tetrahydro-2H-pyran-4-yl)imidazo[1,5-a]pyrazin-8(7H)-one] | 
5 |  | 360 | 85 |  | Cc1cn2c([C@H]3C[C@H]3C)ncc2c(=O)n1Cc1cccc(F)c1 (single isomer, unassigned; isomer 4) [35, isomer 4] | PDE1A, % inhibition (at 1 μM) [1]: 43%; % inhibition of PDE9 at 10 microM [4]: 5%
6 | 57 | 49 | 8 | 31 | Cc1cn2c(C3CCOCC3)ncc2c(=O)n1Cc1cccc(Cl)c1 [Example 18, 7-(3-Chlorobenzyl)-6-methyl-3-(tetrahydro-2H-pyran-4-yl)imidazo[1,5-a]pyrazin-8(7H)-one] | 
7 | 18 | 15 | 51 | 22 | Cc1cn2c(C3CCOCC3)ncc2c(=O)n1Cc1ccc(Cl)cc1 [Example 14, 7-(4-Chlorobenzyl)-6-methyl-3-(tetrahydro-2H-pyran-4-yl)imidazo[1,5-a]pyrazin-8(7H)-one] | 
8 |  | 615 | 225 |  | Cc1cn2c([C@@H]3CCCCO3)ncc2c(=O)n1Cc1cccc(F)c1 (single isomer, unassigned; isomer 1) [30, isomer 1] | PDE1A, % inhibition (at 1 μM) [1]: 20%; % inhibition of PDE9 at 10 microM [4]: −11%
9 |  |  | 290 | 25 | O=c1c2cnc(C3CC3)n2ccn1Cc1cccc(F)c1 [Example 6, 3-Cyclopropyl-7-(3-fluorobenzyl)imidazo[1,5-a]pyrazin-8(7H)-one] | inhibition at 2 µM ([1]; read-out: PDE1A, % inhibition (at 2 μM)): 68%; inhibition at 2 µM ([2]; read-out: PDE1B, % inhibition (at 2 μM)): 81%
10 |  | 1770 |  | 36 | Cc1cn2c(C3CCOCC3)ncc2c(=O)n1C [Example 58, 6,7-dimethyl-3-(tetrahydro-2H-pyran-4-yl)imidazo[1,5-a]pyrazin-8(7H)-one] | inhibition at 10 µM [1]: 58%; inhibition at 10 µM [3]: 44%
11 | 809 |  |  | 14 | Cc1cn2c(C3CCOCC3)ncc2c(=O)n1Cc1ccc(C#N)cc1 [Example 46, 4-((6-methyl-8-oxo-3-(tetrahydro-2H-pyran-4-yl)imidazo[1,5-a]pyrazin-7(8H)-yl)methyl)benzonitrile] | inhibition at 1 µM ([2]; read-out: PDE1B, % inhibition (at 1 μM)): 58%; inhibition at 1 µM ([3]; read-out: PDE1C, % inhibition (at 1 μM)): 9%
12 | 801 | 790 | 300 | -12 | CCCc1ncc2c(=O)n(Cc3cccc(F)c3)ccn12 [Example 1, 7-(3-Fluorobenzyl)-3-propylimidazo[1,5-a]pyrazin-8(7H)-one] | 
13 | 82 | 18 | 8 |  | Cc1cn2c([C@H]3C[C@@H]3C)ncc2c(=O)n1Cc1cccc(F)c1 (single isomer, unassigned; isomer 3) [35, isomer 3] | % inhibition of PDE9 at 10 microM [4]: 0%
14 | 108 | 120 | 14 | 18 | Cc1cn2c(C3CCOCC3)ncc2c(=O)n1Cc1cccc(F)c1 [Example 5, 7-(3-Fluorobenzyl)-6-methyl-3-(tetrahydro-2H-pyran-4-yl)imidazo[1,5-a]pyrazin-8(7H)-one] | 
15 | 87 | 50 | 62 | 7 | O=c1c2cnc(C3CC3)n2ccn1CC1CCCCCC1 [Example 13, 7-(Cycloheptylmethyl)-3-cyclopropylimidazo[1,5-a]pyrazin-8(7H)-one] | 
16 | 287 | 102 | 135 | 4 | COc1ccc(Cn2c(C)cn3c(N4CCOC(C)(C)C4)ncc3c2=O)cc1 [Example 98, 3-(2,2-dimethylmorpholino)-7-(4-methoxybenzyl)-6-methylimidazo[1,5-a]pyrazin-8(7H)-one] | 
17 |  |  |  | 4 | Cc1cn2c(C3CCOCC3)ncc2c(=O)n1C(C)C [Example 61, 7-isopropyl-6-methyl-3-(tetrahydro-2H-pyran-4-yl)imidazo[1,5-a]pyrazin-8(7H)-one] | inhibition at 10 µM [1]: 4%; inhibition at 10 µM [2]: 50%; inhibition at 10 µM [3]: 47%
18 | 113 | 72 | 43 | 18 | O=c1c2cnc(C3CCOCC3)n2ccn1CC1CCCCC1 [Example 11, 7-(Cyclohexylmethyl)-3-(tetrahydro-2H-pyran-4-yl)imidazo[1,5-a]pyrazin-8(7H)-one] | 
19 | 73 | 27 | 52 | -25 | Cc1cn2c(C3CCOCC3)ncc2c(=O)n1Cc1ccc(OC(F)F)cc1 [Example 40, 7-(4-(difluoromethoxy)benzyl)-6-methyl-3-(tetrahydro-2H-pyran-4-yl)imidazo[1,5-a]pyrazin-8(7H)-one] | 
20 | 1690 | 641 | 251 | 6 | Cc1nc(Cn2c(C)cn3c(C4CCOCC4)ncc3c2=O)cs1 [Example 78, 6-methyl-7-((2-methylthiazol-4-yl)methyl)-3-(tetrahydro-2H-pyran-4-yl)imidazo[1,5-a]pyrazin-8(7H)-one] | 
21 | 364 | 166 | 41 |  | Cc1cn2c([C@@H]3C[C@H]3C)ncc2c(=O)n1Cc1cccc(F)c1 (single isomer, unassigned; isomer 2) [35, isomer 2] | % inhibition of PDE9 at 10 microM [4]: 15%
22 | 96 | 52 | 99 | 23 | COc1ccc(Cn2c(C)cn3c(N4CCOCC4)ncc3c2=O)cc1 [Example 93, 3-(morpholino)-7-(4-methoxybenzyl)-6-methylimidazo[1,5-a]pyrazin-8(7H)-one] | 
23 | 401 | 170 | 40 |  | Cc1cn2c(C3(C)CCOC3)ncc2c(=O)n1Cc1cccc(F)c1 (single isomer, unassigned; isomer 2) [32, isomer 2] | % inhibition of PDE9 at 10 microM [4]: 16%
